This note sets out measurements from ChEMBL document CHEMBL1130434, “Simultaneous pharmacokinetic screening of a mixture of compounds in the dog using API LC/MS/MS analysis for increased throughput” (J Med Chem, 1997).

Data set [1] can be described thus: Clearance of compound when administered intravenously as a mixture (five-in-one dose) to a single dog. Type of data set: ADME, organism-based, Canis lupus familiaris. To be noted: in vivo, iv.
Data set [2] can be described thus: Clearance of compound when administered intravenously as an individual dose to a single dog. Type of data set: ADME, organism-based, Canis lupus familiaris. To be noted: in vivo, iv.
Data set [3] in a line: Elimination half-life of compound when administered intravenously as a mixture (five-in-one dose) to a single dog. Type of data set: ADME, organism-based. The note with it: in vivo, iv.
Data set [4] in a line: Elimination half-life of compound when administered intravenously as an individual dose to a single dog. Type of data set: ADME, organism-based. To be noted: in vivo, iv.
Data set [5] in a line: Steady-state volume of distribution of compound when administered intravenously as a mixture (five-in-one dose) to a single dog. To be noted: in vivo, iv, read-out: Vss. Type of data set: ADME, organism-based, Canis lupus familiaris.
Data set [6] is described as follows: Steady-state volume of distribution of compound when administered intravenously as an individual dose to a single dog. The note with it: in vivo, iv, read-out: Vss. Type of data set: ADME, organism-based, Canis lupus familiaris.

On to `COc1ccc(CCN2CCC(c3nc(COCC(F)(F)F)c(-c4ccccc4)o3)CC2)cc1S(N)(=O)=O`, for which the clearance in data set [1] was 5.9 mL/min/kg; in data set [2] it was 5 mL/min/kg. Further, the half-life in data set [3] was 1.5 h; in data set [4] it was 1.4 h. Besides, the Vd was 0.473 L/kg in data set [5] and 0.382 L/kg in data set [6].
As for `COc1ccc(CCN2CCC(c3nc(COCC(F)(F)F)c(-c4ccccc4)o3)CC2)cc1S(=O)(=O)NCCNC(C)=O`, the clearance in data set [1] was determined as 18.7 mL/min/kg; in data set [2] it was 10.3 mL/min/kg. For the same compound, the half-life is 2.9 h in data set [3] and 2.6 h in data set [4]. The Vd in data set [5] came out at 2.83 L/kg; in data set [6] it was 0.6 L/kg.
With `CNC(=O)CN(C)S(=O)(=O)c1cc(CCN2CCC(c3nc(COCC(F)(F)F)c(-c4ccccc4)o3)CC2)ccc1OC`, the clearance came out at 17.3 mL/min/kg in data set [1] and 28.9 mL/min/kg in data set [2]. For the same compound, the half-life in data set [3] is 2.4 h; in data set [4], 2.1 h. The Vd in data set [5] was 2.76 L/kg; in data set [6], 3.46 L/kg.
As for `COc1ccc(CCN2CCC(c3nc(COCC(F)(F)F)c(-c4ccc(F)cc4)o3)CC2)cc1S(N)(=O)=O`, the values for the clearance in data set [1] and in data set [2] were 0.86 mL/min/kg and 0.9 mL/min/kg, respectively. In addition, the figures for the half-life in data set [3] and in data set [4] were 4.9 h and 4.2 h, respectively. In addition, the figures for the Vd in data set [5] and in data set [6] were 0.33 L/kg and 0.243 L/kg, respectively.
For `CNC(=O)CN(C)S(=O)(=O)c1cc(CCN2CCC(c3nc(COCC(F)(F)F)c(-c4ccc(F)cc4)o3)CC2)ccc1OC`, the clearance was found to be 11.2 mL/min/kg in data set [1] and 11.6 mL/min/kg in data set [2]. Also, the values for the half-life in data set [3] and in data set [4] were 3 h and 3.4 h, respectively. Also, the Vd was found to be 2.86 L/kg in data set [5] and 2.91 L/kg in data set [6].
